Assay results from ChEMBL document CHEMBL5365452, “Discovery of (S)-N1-(thiazol-2-yl) pyrrolidine-1,2-dicarboxamide derivatives targeting PI3Ka/HDAC6 for the treatment of cancer” (Bioorg Med Chem Lett, 2023).

What was measured:
[1] = target: T1, Phosphatidylinositol 4,5-bisphosphate 3-kinase catalytic subunit delta isoform (Homo sapiens, UniProt O00329); test: Inhibition of PI3Kdelta (unknown origin)
T1 sequence (O00329 whole entry): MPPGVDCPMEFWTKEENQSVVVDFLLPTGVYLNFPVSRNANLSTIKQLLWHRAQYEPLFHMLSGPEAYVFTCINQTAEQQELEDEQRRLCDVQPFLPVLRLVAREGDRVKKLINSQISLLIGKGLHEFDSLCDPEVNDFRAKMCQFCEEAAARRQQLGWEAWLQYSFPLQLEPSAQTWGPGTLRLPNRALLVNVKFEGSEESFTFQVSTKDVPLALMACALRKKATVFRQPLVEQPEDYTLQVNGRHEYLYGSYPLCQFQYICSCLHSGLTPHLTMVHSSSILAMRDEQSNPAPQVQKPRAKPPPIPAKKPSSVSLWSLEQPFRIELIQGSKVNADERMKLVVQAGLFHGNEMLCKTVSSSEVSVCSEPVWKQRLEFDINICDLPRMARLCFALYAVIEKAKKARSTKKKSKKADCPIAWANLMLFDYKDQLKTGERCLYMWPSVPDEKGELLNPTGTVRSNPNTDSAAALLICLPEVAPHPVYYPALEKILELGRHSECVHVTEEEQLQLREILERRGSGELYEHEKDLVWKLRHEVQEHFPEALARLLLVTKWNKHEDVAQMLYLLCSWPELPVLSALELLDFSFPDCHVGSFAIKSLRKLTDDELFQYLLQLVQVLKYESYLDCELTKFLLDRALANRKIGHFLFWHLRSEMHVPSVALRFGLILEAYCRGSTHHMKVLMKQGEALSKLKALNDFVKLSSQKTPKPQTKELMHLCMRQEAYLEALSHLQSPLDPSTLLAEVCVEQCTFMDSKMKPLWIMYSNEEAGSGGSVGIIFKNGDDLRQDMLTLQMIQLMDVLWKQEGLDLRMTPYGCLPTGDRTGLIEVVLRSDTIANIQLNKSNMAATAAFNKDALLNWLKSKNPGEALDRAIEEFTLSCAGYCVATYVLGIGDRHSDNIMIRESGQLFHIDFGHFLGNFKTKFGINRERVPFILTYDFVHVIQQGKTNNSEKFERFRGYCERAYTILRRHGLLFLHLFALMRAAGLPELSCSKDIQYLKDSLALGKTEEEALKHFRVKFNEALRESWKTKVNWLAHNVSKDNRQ

Histone deacetylase 8 = target: T2, Histone deacetylase 8 (Homo sapiens, UniProt Q9BY41); test: Inhibition of HDAC8 (unknown origin)
T2 sequence (Q9BY41 whole entry): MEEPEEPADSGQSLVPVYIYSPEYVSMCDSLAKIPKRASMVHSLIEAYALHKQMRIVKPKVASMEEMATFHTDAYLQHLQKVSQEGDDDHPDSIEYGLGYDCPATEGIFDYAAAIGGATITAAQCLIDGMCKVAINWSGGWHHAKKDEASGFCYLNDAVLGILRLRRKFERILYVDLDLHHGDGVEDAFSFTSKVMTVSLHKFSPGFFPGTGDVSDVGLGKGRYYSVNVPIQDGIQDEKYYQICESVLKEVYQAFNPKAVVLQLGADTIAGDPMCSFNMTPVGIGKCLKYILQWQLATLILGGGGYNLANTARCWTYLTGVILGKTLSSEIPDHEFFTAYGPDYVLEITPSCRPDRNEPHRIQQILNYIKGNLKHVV

[2] = target: Phosphatidylinositol 4,5-bisphosphate 3-kinase catalytic subunit beta isoform (Homo sapiens, UniProt P42338); test: Inhibition of PI3Kbeta (unknown origin)
Histone deacetylase 11 = target: T3, Histone deacetylase 11 (Homo sapiens, UniProt Q96DB2); test: Inhibition of HDAC11 (unknown origin)
T3 sequence (Q96DB2 whole entry): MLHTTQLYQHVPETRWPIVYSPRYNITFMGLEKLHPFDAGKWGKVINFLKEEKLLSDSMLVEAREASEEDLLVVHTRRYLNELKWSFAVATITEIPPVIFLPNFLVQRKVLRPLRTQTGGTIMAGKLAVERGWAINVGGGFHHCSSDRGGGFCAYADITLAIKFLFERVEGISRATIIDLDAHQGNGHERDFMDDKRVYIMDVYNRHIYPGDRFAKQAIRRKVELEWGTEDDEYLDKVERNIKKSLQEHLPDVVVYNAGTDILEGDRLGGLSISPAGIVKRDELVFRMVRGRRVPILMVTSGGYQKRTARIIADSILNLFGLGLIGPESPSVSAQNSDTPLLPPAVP

Histone deacetylase 1 = Histone deacetylase 1 (Homo sapiens, UniProt Q13547); test: Inhibition of HDAC1 (unknown origin)
[3] = target: Phosphatidylinositol 4,5-bisphosphate 3-kinase catalytic subunit gamma isoform (Homo sapiens, UniProt P48736); test: Inhibition of PI3Kgamma (unknown origin)
MCF7 = test: Antiproliferative activity against human MCF7 cells
L-363 = test: Antiproliferative activity against human L-363 cells
T47D = test: Antiproliferative activity against human T47D cells

Chain of Phosphatidylinositol 4,5-bisphosphate 3-kinase catalytic subunit gamma isoform (P48736 whole entry, canonical isoform): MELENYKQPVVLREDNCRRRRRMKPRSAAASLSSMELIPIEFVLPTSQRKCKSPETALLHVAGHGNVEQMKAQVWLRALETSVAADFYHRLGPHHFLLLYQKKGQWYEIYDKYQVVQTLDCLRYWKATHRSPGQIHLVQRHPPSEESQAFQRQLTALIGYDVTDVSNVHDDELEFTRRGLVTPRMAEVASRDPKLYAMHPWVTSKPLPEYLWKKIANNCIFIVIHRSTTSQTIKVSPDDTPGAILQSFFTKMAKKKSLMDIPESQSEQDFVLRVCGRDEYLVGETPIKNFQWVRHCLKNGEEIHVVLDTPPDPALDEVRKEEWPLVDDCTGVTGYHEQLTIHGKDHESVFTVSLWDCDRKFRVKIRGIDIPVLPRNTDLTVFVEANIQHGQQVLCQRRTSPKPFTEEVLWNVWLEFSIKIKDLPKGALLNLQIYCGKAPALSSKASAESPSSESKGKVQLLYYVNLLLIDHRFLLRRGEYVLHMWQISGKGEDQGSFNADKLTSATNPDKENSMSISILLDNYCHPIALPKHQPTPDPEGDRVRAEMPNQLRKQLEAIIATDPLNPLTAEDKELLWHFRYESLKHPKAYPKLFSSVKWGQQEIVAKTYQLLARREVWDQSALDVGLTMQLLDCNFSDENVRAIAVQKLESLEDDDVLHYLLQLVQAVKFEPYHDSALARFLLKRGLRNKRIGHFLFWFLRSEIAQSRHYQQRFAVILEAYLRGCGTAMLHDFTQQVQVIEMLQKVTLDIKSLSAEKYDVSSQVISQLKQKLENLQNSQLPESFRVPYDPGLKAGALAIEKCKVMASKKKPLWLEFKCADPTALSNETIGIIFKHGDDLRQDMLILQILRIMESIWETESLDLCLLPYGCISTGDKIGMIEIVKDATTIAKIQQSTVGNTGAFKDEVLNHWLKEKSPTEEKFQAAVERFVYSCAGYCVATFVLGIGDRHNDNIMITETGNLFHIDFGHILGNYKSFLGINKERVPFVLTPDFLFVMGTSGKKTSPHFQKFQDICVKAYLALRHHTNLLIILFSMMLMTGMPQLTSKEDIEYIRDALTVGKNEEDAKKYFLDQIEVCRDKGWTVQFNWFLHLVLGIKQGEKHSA
Chain of Phosphatidylinositol 4,5-bisphosphate 3-kinase catalytic subunit beta isoform (P42338 whole entry, canonical isoform): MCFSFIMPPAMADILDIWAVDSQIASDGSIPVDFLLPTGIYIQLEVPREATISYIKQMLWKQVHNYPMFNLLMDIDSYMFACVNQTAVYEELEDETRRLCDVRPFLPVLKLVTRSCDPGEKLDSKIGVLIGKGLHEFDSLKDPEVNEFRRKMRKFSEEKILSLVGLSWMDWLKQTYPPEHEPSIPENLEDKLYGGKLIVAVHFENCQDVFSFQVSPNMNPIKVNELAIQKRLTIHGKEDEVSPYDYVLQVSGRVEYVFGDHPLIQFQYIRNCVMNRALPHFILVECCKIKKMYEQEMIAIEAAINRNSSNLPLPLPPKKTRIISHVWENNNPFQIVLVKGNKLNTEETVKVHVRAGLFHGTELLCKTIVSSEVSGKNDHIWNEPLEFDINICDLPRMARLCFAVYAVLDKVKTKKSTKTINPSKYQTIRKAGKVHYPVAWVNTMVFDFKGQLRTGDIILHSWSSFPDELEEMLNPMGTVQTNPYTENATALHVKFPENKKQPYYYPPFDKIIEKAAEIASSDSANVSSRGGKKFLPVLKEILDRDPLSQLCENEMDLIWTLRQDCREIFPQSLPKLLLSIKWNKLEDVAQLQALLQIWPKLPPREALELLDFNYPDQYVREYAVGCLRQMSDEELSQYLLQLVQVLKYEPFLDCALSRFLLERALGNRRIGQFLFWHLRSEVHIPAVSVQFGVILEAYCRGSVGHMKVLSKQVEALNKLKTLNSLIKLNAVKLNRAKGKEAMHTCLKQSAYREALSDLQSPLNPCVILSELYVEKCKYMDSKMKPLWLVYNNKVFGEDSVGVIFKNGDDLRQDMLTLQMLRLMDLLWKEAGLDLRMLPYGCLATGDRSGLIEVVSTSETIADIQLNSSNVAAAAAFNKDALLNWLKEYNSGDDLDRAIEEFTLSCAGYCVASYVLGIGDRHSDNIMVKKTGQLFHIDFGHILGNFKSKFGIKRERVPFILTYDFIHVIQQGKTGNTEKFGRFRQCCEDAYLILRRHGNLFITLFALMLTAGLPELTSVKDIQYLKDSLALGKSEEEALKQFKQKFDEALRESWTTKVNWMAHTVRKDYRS
Chain of Histone deacetylase 1 (Q13547 whole entry, canonical isoform): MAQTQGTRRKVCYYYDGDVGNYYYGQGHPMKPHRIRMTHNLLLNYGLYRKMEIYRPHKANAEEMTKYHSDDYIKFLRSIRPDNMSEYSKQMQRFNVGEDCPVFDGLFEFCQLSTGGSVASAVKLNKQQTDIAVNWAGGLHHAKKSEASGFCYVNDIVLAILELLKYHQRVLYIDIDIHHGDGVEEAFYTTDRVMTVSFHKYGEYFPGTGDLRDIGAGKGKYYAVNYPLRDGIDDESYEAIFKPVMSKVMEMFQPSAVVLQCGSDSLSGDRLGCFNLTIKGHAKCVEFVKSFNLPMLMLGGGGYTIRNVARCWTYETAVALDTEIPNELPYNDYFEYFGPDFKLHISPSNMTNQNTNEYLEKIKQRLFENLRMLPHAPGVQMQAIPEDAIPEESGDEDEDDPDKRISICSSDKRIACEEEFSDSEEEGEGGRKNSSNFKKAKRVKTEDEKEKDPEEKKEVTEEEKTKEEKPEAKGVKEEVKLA

| IC50 [1] | IC50 (Histone deacetylase 8) | IC50 [2] | IC50 (Histone deacetylase 11) | IC50 (Histone deacetylase 1) | IC50 [3] | IC50 (MCF7) | IC50 (T47D) | Structure (SMILES) | IC50 (L-363) |
| --- | --- | --- | --- | --- | --- | --- | --- | --- | --- |
| 214 nM | > 2000 nM | > 1000 nM | > 2000 nM | 471 nM | 318 nM |  |  | Cc1nc(NC(=O)N2C[C@H](NC(=O)c3ccc(C(=O)NO)cn3)C[C@H]2C(N)=O)sc1-c1ccnc(C(C)(C)C(F)(F)F)c1 |  |
| 42 nM | > 2000 nM | 880 nM | 586 nM | > 2000 nM | 285 nM |  |  | Cc1nc(NC(=O)N2C[C@H](NS(=O)(=O)Cc3ccc(C(=O)NO)cc3)C[C@H]2C(N)=O)sc1-c1ccnc(C(C)(C)C(F)(F)F)c1 |  |
|  |  |  |  |  |  | 250 nM | 2300 nM | Cc1nc(NC(=O)N2CCC[C@H]2C(N)=O)sc1-c1ccnc(C(C)(C)C(F)(F)F)c1 [ALPELISIB] | 260 nM |
|  |  |  |  |  |  | 3560 nM |  | O=C(CCCCCCC(=O)Nc1ccccc1)NO [VORINOSTAT] |  |
